# System: progranulin
# Experiment: Progranulin induction cellular assay (ELISA of secreted mouse PGRN)
# Type: cell-based
# Details: progranulin induction assay; mouse pMG, primary cortical neurons and BV-2 cell lines named, cell type not given; ELISA-based readout; read-out: EC50
# Procedure: Cellular Assays: Progranulin induction assay. To measure the efficacy of compounds, a progranulin induction cellular assay in mouse primary microglia (pMG), primary cortical neurons, and BV-2 cell lines is used. BV-2 cells are split the day before plating into a 96 well plate format at approximately 80%. Cells should be plated the day before and allowed for 1 hour attachment period and for 16 hour incubation. Levels of progranulin secreted into the cell culture medium or retained in the cell lysate can be quantified using an ELISA-based readout and measurement of secreted mouse PGRN in the medium was assessed by the methodology published by Ghidoni et al. 2012. Standard ELISA kits to measure PGRN are available from vendors such as Adipogen, R&D, and Biovendor.
# Table B below presents the results of a progranulin induction assay as described above.
row,EC50,SMILES
1,501 nM,"NCC1COC(C(=O)N2CCc3ccccc3[C@@H]2c2ccc(F)cc2)C1 (mixture of isomers) [Compound 5014, ((2R)-4-(aminomethyl)tetrahydrofuran-2-yl)((S)-1-(4-fluorophenyl)-3,4-dihydroisoquinolin-2(1H)-yl)methanone]"
2,164 nM,"NC[C@@]1(O)COC(C(=O)N2CCc3ccccc3[C@@H]2c2ccc(F)cc2)C1 (single isomer, unassigned) [Compound 5004]"
3,216 nM,"NC[C@]1(O)COC(C(=O)N2CCc3ccccc3[C@@H]2c2ccc(F)cc2)C1 (single isomer, unassigned) [Compound 5005]"
4,143 nM,"NCC1(O)COC(C(=O)N2CCc3ccccc3[C@@H]2c2ccc(F)cc2)C1 (single isomer, unassigned) [Compound 5006]"
5,140 nM,"NCC1(O)COC(C(=O)N2CCc3ccccc3[C@@H]2c2ccc(F)cc2)C1 (single isomer, unassigned) [Compound 5007]"
6,199 nM,"N[C@H]1CC[C@@H](C(=O)N2CCc3ccccc3[C@@H]2c2ccc(F)cc2)OC1 (single isomer, unassigned) [Compound 5016]"
7,91 nM,"N[C@@H]1CC[C@H](C(=O)N2CCc3ccccc3[C@@H]2c2ccc(F)cc2)OC1 (single isomer, unassigned) [Compound 5017]"
8,99 nM,"N[C@@H]1CC[C@@H](C(=O)N2CCc3ccccc3[C@H]2c2ccc(F)cc2F)OC1 (single isomer, unassigned) [Compound 5019]"
9,148 nM,"N[C@]12CC[C@](C(=O)N3CCc4ccccc4[C@@H]3c3ccc(F)cc3)(C1)OC2 (single isomer, unassigned) [Compound 5021]"
10,212 nM,"N[C@]12CC[C@](C(=O)N3CCc4ccccc4[C@H]3c3ccc(F)cc3)(C1)OC2 (single isomer, unassigned) [Compound 5023]"
11,488 nM,"N[C@H]1CCO[C@H](C(=O)N2CCc3ccccc3[C@@H]2c2ccc(F)cc2)C1 (single isomer, unassigned) [Compound 5027]"
12,42 nM,"N[C@@H]1CCO[C@@H](C(=O)N2CCc3ccccc3[C@@H]2c2ccc(F)cc2)C1 (single isomer, unassigned) [Compound 5028]"
13,500 nM,"O=C([C@@H]1C[C@@](O)(CNCCO)CO1)N1CCc2ccccc2[C@@H]1c1ccc(F)cc1 (single isomer, unassigned) [Compound 5038]"
14,357 nM,"O=C([C@@H]1C[C@](O)(CNCCO)CO1)N1CCc2ccccc2[C@@H]1c1ccc(F)cc1 (single isomer, unassigned) [Compound 5039]"
15,173 nM,"O=C([C@H]1C[C@@](O)(CNCCO)CO1)N1CCc2ccccc2[C@@H]1c1ccc(F)cc1 (single isomer, unassigned) [Compound 5040]"
16,163 nM,"O=C([C@H]1CCNCCO1)N1CCc2ccccc2[C@@H]1c1ccc(F)cc1 (single isomer, unassigned) [Compound 5044]"
17,78 nM,"O=C([C@@H]1CCNCCO1)N1CCc2ccccc2[C@@H]1c1ccc(F)cc1 (single isomer, unassigned) [Compound 5045]"
18,62 nM,"NC[C@]1(O)CC[C@@H](C(=O)N2CCc3ccccc3[C@@H]2c2ccc(F)cc2)OC1 (single isomer, unassigned) [Compound 5046]"
19,86 nM,"NC[C@@]1(O)CC[C@@H](C(=O)N2CCc3ccccc3[C@@H]2c2ccc(F)cc2)OC1 (single isomer, unassigned) [Compound 5047]"
20,948 nM,"O=C([C@@H]1C[C@@H](NCCO)CO1)N1CCc2ccccc2[C@@H]1c1ccc(F)cc1 (single isomer, unassigned) [Compound 5066]"
21,767 nM,"O=C([C@@H]1C[C@H](NCCO)CO1)N1CCc2ccccc2[C@@H]1c1ccc(F)cc1 (single isomer, unassigned) [Compound 5067]"
22,252 nM,"N[C@@]1(CO)CO[C@@H](C(=O)N2CCc3ccccc3[C@@H]2c2ccc(F)cc2)C1 (single isomer, unassigned) [Compound 5071]"
23,166 nM,"N[C@H]1CCO[C@@H](C(=O)N2CCc3ccccc3[C@@H]2c2ccc(F)cc2)C1 (single isomer, unassigned) [Compound 5080]"
24,188 nM,"N[C@@H]1CCO[C@H](C(=O)N2CCc3ccccc3[C@@H]2c2ccc(F)cc2)C1 (single isomer, unassigned) [Compound 5081]"
25,44 nM,"CO[C@H]1C[C@H](C(=O)N2CCc3ccccc3[C@@H]2c2ccc(F)cc2)OC[C@H]1N (single isomer, unassigned) [Compound 5082]"

row,EC50,SMILES
1,162 nM,"O=C([C@H]1CNCCCO1)N1CCc2ccccc2[C@@H]1c1ccc(F)cc1 (single isomer, unassigned) [Compound 5090]"
2,408 nM,"O=C([C@@H]1CNCCCO1)N1CCc2ccccc2[C@@H]1c1ccc(F)cc1 (single isomer, unassigned) [Compound 5091]"
3,372 nM,"C[C@]1(C(=O)N2CCc3ccccc3[C@@H]2c2ccc(F)cc2)C[C@@H](N)CCO1 (single isomer, unassigned) [Compound 5235]"
4,393 nM,"C[C@]1(C(=O)N2CCc3ccccc3[C@@H]2c2ccc(F)cc2)C[C@H](N)CCO1 (single isomer, unassigned) [Compound 5236]"
5,665 nM,"C[C@@]1(C(=O)N2CCc3ccccc3[C@@H]2c2ccc(F)cc2)C[C@H](N)CCO1 (single isomer, unassigned) [Compound 5237]"
6,105 nM,"C[C@@]1(C(=O)N2CCc3ccccc3[C@@H]2c2ccc(F)cc2)C[C@@H](N)CCO1 (single isomer, unassigned) [Compound 5238]"
7,100 nM,"O=C([C@H]1OCCNC[C@H]1O)N1CCc2ccccc2[C@@H]1c1ccc(F)cc1 (single isomer, unassigned) [Compound 5246]"
8,78 nM,"O=C([C@H]1CCNCCO1)N1CCc2ccccc2[C@@H]1c1ccc(F)cc1F (single isomer, unassigned) [Compound 5263]"
9,48 nM,"O=C([C@@H]1CCNCCO1)N1CCc2ccccc2[C@@H]1c1ccc(F)cc1F (single isomer, unassigned) [Compound 5264]"
10,352 nM,"O=C([C@@H]1OCCNC[C@@H]1F)N1CCc2ccccc2[C@@H]1c1ccc(F)cc1 (single isomer, unassigned) [Compound 5418]"
11,15 nM,"O=C([C@H]1C[C@@H]2NCCS[C@H]2CO1)N1CCc2ccccc2[C@@H]1c1ccc(F)cc1 (single isomer, unassigned) [Compound 5534]"
12,28 nM,"O=C([C@H]1C[C@@H]2NCC(CO)O[C@H]2CO1)N1CCc2ccccc2[C@@H]1c1ccc(F)cc1 (single isomer, unassigned) [Compound 5535]"
13,3 nM,"CC(=O)N1CCN[C@H]2C[C@H](C(=O)N3CCc4ccccc4[C@@H]3c3ccc(F)cc3)OC[C@@H]21 (single isomer, unassigned) [Compound 5543]"
14,19 nM,"CCC(=O)N1CCN[C@H]2C[C@H](C(=O)N3CCc4ccccc4[C@@H]3c3ccc(F)cc3)OC[C@@H]21 (single isomer, unassigned) [Compound 5544]"
15,4 nM,"O=C([C@H]1C[C@@H]2NCCN(CC(F)(F)F)[C@H]2CO1)N1CCc2ccccc2[C@@H]1c1ccc(F)cc1 (single isomer, unassigned) [Compound 5545]"
16,62 nM,"C[S@@+2]([NH-])([O-])[C@H]1CO[C@@H](C(=O)N2CCc3ccccc3[C@@H]2c2ccc(F)cc2)C[C@@H]1N (single isomer, unassigned) [Compound 5547]"
17,71 nM,"C[S@](=N)(=O)[C@H]1CO[C@@H](C(=O)N2CCc3ccccc3[C@@H]2c2ccc(F)cc2)C[C@@H]1N (single isomer, unassigned) [Compound 5548]"
18,30 nM,"CC[S@@+2]([NH-])([O-])[C@H]1CO[C@@H](C(=O)N2CCc3ccccc3[C@@H]2c2ccc(F)cc2)C[C@@H]1N (single isomer, unassigned) [Compound 5549]"
19,17 nM,"CC[S@](=N)(=O)[C@H]1CO[C@@H](C(=O)N2CCc3ccccc3[C@@H]2c2ccc(F)cc2)C[C@@H]1N (single isomer, unassigned) [Compound 5550]"
20,27 nM,"CC[S@+2]([O-])([N-]C)[C@H]1CO[C@@H](C(=O)N2CCc3ccccc3[C@@H]2c2ccc(F)cc2)C[C@@H]1N (single isomer, unassigned) [Compound 5551]"
21,11 nM,"CC[S@@](=O)(=NC)[C@H]1CO[C@@H](C(=O)N2CCc3ccccc3[C@@H]2c2ccc(F)cc2)C[C@@H]1N (single isomer, unassigned) [Compound 5552]"
22,29 nM,"C[N-][S@@+2](C)([O-])[C@H]1CO[C@@H](C(=O)N2CCc3ccccc3[C@@H]2c2ccc(F)cc2)C[C@@H]1N (single isomer, unassigned) [Compound 5555]"
23,70 nM,"C[N-][S@+2](C)([O-])[C@H]1CO[C@@H](C(=O)N2CCc3ccccc3[C@@H]2c2ccc(F)cc2)C[C@@H]1N (single isomer, unassigned) [Compound 5556]"
24,523 nM,"CC[N-][S@@+2](C)([O-])[C@H]1CO[C@@H](C(=O)N2CCc3ccccc3[C@@H]2c2ccc(F)cc2)C[C@@H]1N (single isomer, unassigned) [Compound 5557]"
25,312 nM,"CC[N-][S@+2](C)([O-])[C@H]1CO[C@@H](C(=O)N2CCc3ccccc3[C@@H]2c2ccc(F)cc2)C[C@@H]1N (single isomer, unassigned) [Compound 5558]"

row,SMILES,EC50
1,"N=[S@]1(=O)CCN[C@H]2C[C@H](C(=O)N3CCc4ccccc4[C@@H]3c3ccc(F)cc3)OC[C@@H]21 (single isomer, unassigned) [Compound 5554]",4860 nM

# Reference: patent US20230406843A1, “Progranulin Modulators and Methods of Using the Same” (ARKUDA THERAPEUTICS, priority 2020, published 2023)
